# Laboratory results as given in patent publication US20030224446A1, “Method of predicting cytokine response to tissue injury” (priority 2001, published 2003).
# Entries after “also recorded” stand apart in the source; their conditions may differ.
# Columns and labels:
# [1] = tested on: hippocampal dentate granule cells; experiment: Hematoxylin and eosin staining of hippocampus 24 h after TMT; format: in vivo, mice
# Method: (§1) Food and water were available ad libitum.
# (§2) Based upon previous studies with TMT exposure (Bruccoleri et al., 1998, 1999), a minimum of six mice per group were examined for morphological changes in the hippocampus 24 h following injection. Animals were lightly anesthetized with CO2 and decapitated and brains were removed from the cranium, bisected in the midsagittal plane, and immersion-fixed in 4% paragormaldehyde/0.1 M phosphate-buffered saline (PBS; pH 7.2) overnight at room temperature. Eight-micron paraffin-embedded sections were stained by routine hematoxylin and eosin (H&E) to visualize tissue cellularity. Astrocytes were identified by immunohistochemistry using polyclonal glial fibrillary acidic protein (GFAP) antibodies (Dako Corp., Carpinteria, Calif.). Briefly, rehydrated sections were treated with 3% H2O2, subjected to heat-induced epitope retrieval (HIER) using a decloaking chamber (Biocare Medical, Walnut Creek, Calif.), and incubated with nonimmune goat serum (1.5:100 dilution in 1% BSA/PBS) prior to incubation with rabbit anti-rat GFAP (1:2000 in 1:1 solution of 1% BSA and 1% powered milk in PBS). Sections were incubated with a secondary IgG antibody followed by ABC (avidin-biotin complex) reagent (Vectastain Elite, Vector Laboratories, Burlingame, Calif.) and detected by 3,3′-diaminobenzidine tetrahydrochloride (DAB) substrate (Sigma-Aldrich Research, St. Louis, Mo.). Microglia cells were identified by lectin binding (Bandeiraea Simplicifolia BS-4, 1:10; Sigma Chemical Co.; St. Louis, Mo.) by the method of Streit and Kreutzberg (1987) using HIER. Sites containing microglia bound peroxidase-lectin conjugates were visualized by DAB-H2O2 substrate containing CO2 ions.
# [2] = tested on: astrocytes (GFAP immunoreactivity); experiment: GFAP immunohistochemistry of astrocytes in hippocampus 24 h after TMT; format: in vivo, mice
# Method: as §1, §2
# [3] = tested on: microglia; experiment: Lectin histochemistry for microglia in hippocampus 24 h after TMT; format: in vivo; details: 24 h post-TMT, wild-type, APOE knockout and APOE4 mice
# Method: as §1
# as §2, with “Microglia cells were identified by lectin binding (Bandeiraea Simplicifolia BS-4, 1:10; Sigma Chemical Co.; St. Louis, Mo.) by the method of Streit and Kreutzberg (1987) using HIER. Sites containing microglia bound peroxidase-lectin conjugates were visualized by DAB-H2O2 substrate containing CO2 ions.” left out
# [4] = tested on: ICAM-1, iNOS, A20, Mac-1, EB22/5 and GFAP mRNA; experiment: RNase protection assay, host-response gene probe set, hippocampus; format: in vivo, mice; details: 24 h; for mRNA levels for Mac-1, A20, and iNOS: any group of mice
# Method: as §1
# (§3) Based upon earlier studies with TMT exposure (Bruccoleri et al., 1998, 1999), Rnase protection assays were conducted at 24-h post-TMT. Multiprobe sets were used for simultaneous detection of mRNAs as previously described (Hobbs, 1993; Bruccoleri et al., 1999). The first set, provided by Dr. Iain Campbell (Scripps Research Institute, San Diego, Calif.), contained probes for intercellular adhesion molecule-1 (ICAM-1), inducible nitric oxide synthase (iNOS), an anti-apoptotic TNFα-inducible early response gene (A20), macrophase-1 antigen (Mac-1), a murine acute-phase response gene homologous to the α-1-antichymotrypsin gene (EB22/5), and GFAP as previously described (Campbell et al., 1994). The second set was purchased from Pharmingen (San Diego, Calif.) and contained probes for tumor necrosis factor-β (TNFβ) and -α (TNFα), interleukin-1α (IL-1α), macrophage inflammatory protein-1α (MIP-1α), and transforming growth factor-β1 (TGF-β1). Each probe set contained probes for L32 and GAPDH. A minimum of 4 animals per group was used in each experiment. Individual fragments were separated by 5% acrylamide/8 M urea sequencing gel electrophoresis and visualized by autoradiography (Hyperfilm-MP film; Amersham, Buckinghamshire, U.K.). Radioactivity in each fragment was visualized by phosphorimager (Molecular Dynamics, Sunnyvale, Calif.) and relative volume determined using Imagequant (Molecular Dynamics) and normalized relative to the corresponding L32 volume.
# (§4) Subsequent independent group mean comparisons between each saline-injected genotype or between TMT and saline-injected mice, within each genotype, were conducted using individual one-way ANOVAs for each gene transcript. A statistical significance level was set at p<0.05.
# [5] = tested on: TNFβ, TNFα, IL-1α, MIP-1α and TGF-β1 mRNA; experiment: RNase protection assay, cytokine probe set, hippocampus; format: in vivo, mice; details: for increase of MEP-1α mRNA levels: vs saline
# Method: as §1, §3, §4
# [6] = tested on: TNFβ, TNFα, IL-1α, MIP-1α and TGF-β1 mRNA; experiment: RNase protection assay, cytokine probe set, cortex; format: in vivo, mice; details: 24 h
# Method: as §1, §3, §4
# Given the genotype-specific effects in the hippocampus of 8-month-old mice following TMT, additional brain regions were examined. In the cortex, TMT exposure elevated mRNA levels for TNFα and TGF-β1 in the wild-type mice with no elevation seen in the APOE knockout or APOE4 mice (FIG. 7). MIP-1α mRNA levels in both wild-type and APOE4 mice were elevated by TMT with no elevation in APOE knockout mice (FIG. 7).
# [7] = tested on: TNFβ, TNFα, IL-1α, MIP-1α and TGF-β1 mRNA; experiment: RNase protection assay, cytokine probe set, cerebellum; format: in vivo; details: 8-month-old mice, 24 h
# Method: as §1
# as §3, with “Individual fragments were separated by 5% acrylamide/8 M urea sequencing gel electrophoresis and visualized by autoradiography (Hyperfilm-MP film; Amersham, Buckinghamshire, U.K.).” left out, “volume. […]” for “volume.”
# [8] = tested on: wild-type, APOE knockout and APOE4 mice; experiment: Systemic toxicity (tremor, seizures, survival) after a single i.p. dose of TMT
# [9] = 21-day-old wild-type and APOE knockout mice
# [10] = 8-month-old APOE knockout mice, hippocampus, 24 h
# [11] = 8-month-old, all animals, hippocampus, 24 h
compound,measurement,setting,value
"[CH3][Sn]([CH3])([CH3])[OH] [TMT, trimethyltin hydroxide]",neuronal necrosis in dentate granule cells (FIG. 1),"[1]; TMT-exposed wild-type, APOE knockout and APOE4 mice, 2 mg/kg ip, 24 h",Severe neuronal necrosis
same,neuronal cell death in the hippocampus (dentate granule cells),"[1]; wild-type mice, 24 h after TMT",neuronal cell death was evident
same,neurons of the pyramidal cell layer,"[1]; wild-type mice, 24 h after TMT",no indication of neuronal cell death
same,astrocyte morphology (FIG. 2),"[2]; 24 h after TMT 2.0 mg/kg ip, compared with saline",thick cell bodies and processes characteristic of astrocyte reactivity
same,GFAP immunoreactivity in astrocytes,"[2]; APOE knockout and APOE4 mice, 24 h after TMT",slight increase in GFAP immunoreactivity
same,GFAP immunostaining,"[2]; wild-type mice, 24 h after TMT",little change
same,reactive/activated microglia by lectin histochemistry,[3],did not detect reactive/activated microglia
same,EB22 mRNA levels,[4]; 8-month-old APOE knockout and APOE4 mice,elevation
same,EB22 mRNA levels,[4]; 8-month-old wild-type mice,No elevation
same,GFAP mRNA levels,"[4]; 8-month-old, all groups of mice",elevation
same,"mRNA levels for Mac-1, A20, and iNOS",[4]; 8-month-old,not altered
same,EB22 mRNA levels,[4]; 21-day-old APOE4 mice,no elevation
same,EB22 mRNA levels,[4]; [9],significant (p<0.05) elevation
same,GFAP mRNA levels,[4]; [9],significantly elevated
same,ICAM-1 mRNA levels,"[4]; 21-day-old, all mice, vs saline",slight but significant elevation
same,"mRNA levels for Mac-1, A20, and iNOS",[4]; 21-day-old,not altered
same,increase of MEP-1α mRNA levels,"[5]; 8-month-old APOE4 mice, hippocampus, 24 h",3 fold
same,elevation in MIP-1α mRNA compared to the response in wild-type mice,[5]; 8-month-old APOE knockout mice,less elevation
same,TNFα mRNA level,[5]; [10],distinct lack of elevation; also recorded: No elevation
same,increase of MEP-1α mRNA levels,[5]; [10],1.3 fold
same,TNFα mRNA levels,"[5]; 8-month-old wild-type and APOE4 mice, hippocampus, 24 h",elevated
same,increase of MEP-1α mRNA levels,"[5]; 8-month-old wild-type mice, hippocampus, 24 h",3.5 fold
same,MIP-1α mRNA levels relative to saline-injected mice,[5]; [11],significant (p<0.05) elevations
same,"mRNA levels for TNFβ, IL-1α, or TGF-β1",[5]; [11],No significant elevations
same,IL-1α mRNA levels,"[5]; 21-day-old APOE knockout and APOE4 mice, hippocampus, 24 h",elevated
same,TNFα and TGF-β1 mRNA levels,"[5]; 21-day-old wild-type and APOE knockout mice, hippocampus, 24 h",significantly elevated
same,MIP-1α mRNA levels,"[5]; 21-day-old, all mice, hippocampus, 24 h",elevations
same,"induction of TNFα, IL-1α, and MIP-1α by TMT",[5]; APOE knockout mice (discussion),lack of an induction
same,induction of TGF-β1,"[5]; APOE knockout mice or those containing the E4 allele, following TMT (discussion)",lack of an induction
same,MIP-1α mRNA levels,[6]; 8-month-old APOE knockout mice,no elevation
same,mRNA levels for TNFα and TGF-β1,[6]; 8-month-old APOE knockout or APOE4 mice,no elevation
same,MIP-1α mRNA levels,[6]; 8-month-old wild-type and APOE4 mice,elevated
same,mRNA levels for TNFα and TGF-β1,[6]; 8-month-old wild-type mice,elevated
same,"mRNA levels for TNFβ, TNFα, IL-1α, MIP-1α, and TGF-β1",[7],no effect
same,decrease in survival rate,"[8]; APOE4 mice, 8 months of age, compared to APOE knockout and wild-type",~40%
same,decrease in survival rate,"[8]; APOE4 mice, 21 days of age, 2.0 mg/kg i.p.",20%
same,decrease in survival rate,"[8]; APOE knockout mice, 21 days of age, 2.0 mg/kg i.p.",10%
same,aggressiveness or seizures,[8]; any of the mice exposed to TMT,No signs of aggressiveness or seizures
